Experimental data published in patent publication US20260373226A1, “METHODS AND COMPOSITIONS FOR THE TREATMENT OF NEURODEGENERATIVE DISEASE” (Stealth BioTherapeutics Inc., priority 2022, published 2026).

Legend:
[1] = Steady state PK in plasma, CSF, brain after 5 daily s.c. doses in rats; format: in vivo, male Sprague-Dawley rat; conditions: rat, 10 mg/kg s.c., 5 daily doses
Method: Pharmacokinetic profile of SBT-272 in rat plasma, CSF, and brain (for FIG. 5A). The objective of this study was to evaluate the pharmacokinetics of SBT-272 in microdialysate from the prefrontal cortex (PFC) and striatum (STR), and in plasma and CSF of freely-moving adult male Sprague-Dawley rats. The experiments and the analysis were performed at Charles River Laboratories Den Bosch B.V., location Groningen (Groningen, the Netherlands).
Test items. Test compound was SBT-272. The molecular weight of SBT-272 is 607.75 g/mol in the salt-free form, and 717.13 g/mol in the salt form.
In vivo experiments: Animals. A total of six male Sprague-Dawley rats (309-329 g; CRL Sulzfeld, Germany) were used for the experiments. The experiments were conducted in strict accordance with the Guide for the Care and Use of Laboratory Animals (National Research Council 2011) and were in accordance with European Union directive 2010/63 and the Dutch law. The experiments were carried out under license number AVD23600202011187, issued by the national committee for licensing of animal experiments (Centrale Commissie Dierproeven) and were approved by the Animal Care and Use Committee (Instantie voor Dierenwelzijn) of Charles River Discovery Groningen.
Following arrival, animals were housed in groups of 5 in polycarbonate cages (56 X 33×20 cm) with wire mesh top in a temperature (22±2 °C) and humidity (55±15%) controlled environment on a 12 hour light cycle (07.00-19.00 h). After surgery, animals were housed individually (cages 30×30×40 cm). Standard diet (A04 mod. R/M-M, Ssniff, Germany) and domestic quality mains water were available ad libitum.
In vivo experiments: Surgery. Animals were anesthetized using isoflurane (2% and 800 mL/min 02). Before surgery, carprofen (5 mg/kg, s.c.) was administered for peri- and post-operative analgesia. A mixture of bupivacaine and epinephrine was applied to the incision site and periosteum of the skull for local analgesia.
In vivo experiments: Microdialysis probe implantation. Each animal was placed in a stereotaxic frame (Kopf instruments, USA). […]

[2] = test system: models of neurodegeneration; assay: In vitro effect concentration (in vitro-in vivo correlation); format: cell-based; conditions: FIG. 3A
Source text: See Guatam M., Platform presentation. NEALS, 2022. […] See Keefe, et al. (2019); Gautam, et al. (2022); Guatam, et al. (2021). Gautam, et al., SBT-272 improved mitochondria structure and function and preserved upper motor neurons with TDP-43 pathology, Platform poster presentation, presented at NEALS poster session (2022); Bido, et al. (2021); Silva, et al. (2022); and Zariwala, et al., Effects of the mitochondria-targeting small molecule SBT-272 in the R6/2 transgenic mice of Huntington's Disease, Poster presented at Keystone Symposia poster Session, 2022.

[3] = Tolerability in nonhuman primates, 10 daily SC injections; format: in vivo, cynomolgus monkey; conditions: 10 days
Method: Pharmacokinetic profile of SBT-272 in nonhuman primate plasma, CSF, and brain. The objective of this study was to determine the pharmacokinetic profile of SBT-272 in CSF and plasma when delivered by subcutaneous (SC) injection for 10 days to cynomolgus monkeys. SBT-272 solution was administered daily by SC injection for 10 days. The following parameters and endpoints were evaluated in this study: mortality, clinical observations, body weights, pharmacokinetic samples (CSF and plasma), and selected tissue collection. There was no mortality during the study. […] Additional details regarding the experimental protocol are provided below.
Test System. Details Regarding the Test System are Provided Below: • Species: Nonhuman primate • Strain/Breed: Cynomolgus monkey • Animal Condition: Non-naïve • Animal Procurement Method: In-house colony • Animal Supplier: Charles River Laboratories • Animal Supplier Location: 531 Boul des Prairies, Laval, QC H7V 1B7, Canada • Animal Origin: Asia • Number of Males: 3 • Age at the Initiation of Dosing: 18 to 60 months • Weight at the Initiation of Dosing: 1.4 to 5.0 kg
• Route of Administration: Subcutaneous injection into the scapular and mid-dorsal areas • Treatment Frequency: Daily • Treatment Duration: 10 days • Method: The first day of dosing is designated as Day 1. Dose formulations are allowed to warm up at ambient temperature for at least 30 minutes prior to dosing, as appropriate. The animals are temporarily restrained for dose administration and are not be sedated. The volume for each dose is administered over 1 (preferred) or 2 (as necessary) separate injections within the designated area. Injection sites are rotated daily (see FIG. 4B). If a designated subcutaneous test site is not available for a given animal on any day, then the next available test site in the rotation should be used for dosing. The injection area is marked as frequently as required to allow appropriate visualization of administration sites. Hair may be clipped or shaved if required to improve visualization of the injection sites. […]

Compound: Cc1cc(O)cc(C)c1C[C@H](NC(=O)[C@H](N)CCCNC(=N)N)C(=O)N[C@@H](CCCCN)c1nc(Cc2ccccc2)no1 [SBT-272, (R)-2-amino-N—((S)-1-(((S)-5-amino-1-(3-benzyl-1,2,4-oxadiazol-5-yl)pentyl)amino)-3-(4-hydroxy-2,6-dimethylphenyl)-1-oxopropan-2-yl)-5-guanidinopentanamide]
- Kp ([1]; brain, sc, read-out: brain:plasma ratio): 178
- brain:CSF ratio [1]: 182
- plasma:CSF ratio [1]: 1.03
- optimal in vitro effects, concentration [2]: 10 to 100 nM
- body weight differences related to administration ([3]; 5 mg/kg/day SC): no differences in body weights
- mortality ([3]; 5 mg/kg/day SC): no mortality
- tolerability ([3]; SC injection at 5 mg/kg/day): well tolerated
